In patent US20140275049A1, “SUBSTITUTED PYRAZOLE ANALOGS As RAR ANTAGONISTS” (Eli Lilly and Company, priority 2011, published 2014):

Legend:
RARβ = molecular target: T1, RARβ (Homo sapiens, UniProt P10826); assay: RARβ binding assay (SPA, 3H-TTNPB competition); details: RARβ/RXRα heterodimer
T1 construct: made in house; host or cells: baculovirus expression system
T1 sequence (P10826 1-455): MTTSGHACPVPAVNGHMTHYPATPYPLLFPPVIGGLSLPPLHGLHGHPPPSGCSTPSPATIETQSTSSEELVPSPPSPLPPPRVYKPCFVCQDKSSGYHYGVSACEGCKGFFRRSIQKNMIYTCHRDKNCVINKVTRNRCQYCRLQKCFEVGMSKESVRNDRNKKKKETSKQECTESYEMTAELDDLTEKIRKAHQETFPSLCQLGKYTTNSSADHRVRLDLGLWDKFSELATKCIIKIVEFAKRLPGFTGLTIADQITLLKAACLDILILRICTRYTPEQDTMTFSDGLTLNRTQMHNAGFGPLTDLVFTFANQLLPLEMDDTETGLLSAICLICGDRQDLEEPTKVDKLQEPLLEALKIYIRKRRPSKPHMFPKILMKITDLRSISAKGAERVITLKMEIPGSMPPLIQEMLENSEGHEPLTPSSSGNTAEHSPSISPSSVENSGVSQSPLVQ
T1 sequence (P19793 1-462 partner): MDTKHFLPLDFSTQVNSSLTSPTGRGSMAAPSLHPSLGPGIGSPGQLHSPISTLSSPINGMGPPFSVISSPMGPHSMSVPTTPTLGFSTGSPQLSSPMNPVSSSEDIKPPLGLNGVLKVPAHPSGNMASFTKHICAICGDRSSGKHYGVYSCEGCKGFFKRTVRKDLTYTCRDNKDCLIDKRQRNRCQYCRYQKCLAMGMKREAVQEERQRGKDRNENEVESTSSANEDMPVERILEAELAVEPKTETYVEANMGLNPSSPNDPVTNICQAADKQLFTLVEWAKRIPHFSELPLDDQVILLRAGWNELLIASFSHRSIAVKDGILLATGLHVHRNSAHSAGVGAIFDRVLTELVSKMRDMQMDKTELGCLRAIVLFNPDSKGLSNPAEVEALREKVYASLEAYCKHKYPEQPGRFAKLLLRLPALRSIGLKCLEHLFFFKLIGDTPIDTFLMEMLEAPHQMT
Excerpt: (§1) Compounds can be evaluated for binding to RARα, β and γ by measuring their ability to competitively bind to the RAR receptors when dimerized with the binding partner RXRα. Competitive binding assays may be carried out by Scintillation Proximity Assay (SPA) technology using the RARα, β or γ heterodimer (with RXRα as a partner with all the RARs) receptors prepared in a baculovirus expression system. Use the biotinylated oligonucleotide: 5′-[…]-3′ for binding of receptor to yttrium silicate streptavidin-coated SPA beads. Per well, preincubate […] with 82.7 μg SPA beads in a binding buffer containing 10 mM HEPES pH 7.8, 80 mM KCl, 0.5 mM MgCl2, 1 mM DTT, 0.5% CHAPS and 16.6 μg bovine serum albumin for 30 min at room temperature. Then spin the mixture at 2,000 rpm for 3 min to pelletize the beads-oligo mix. Remove the supernatant and resuspend the beads-oligo pellet in the same binding buffer as above, but which in addition now also contain 14% glycerol, 5 μg of sheared salmon sperm DNA, 0.5 μg of RARα, 1.0 μg of RARβ, or 0.25 μg of RARγ receptor, respectively. Carry out the binding assays in the presence of ˜11.3 μCi of ^3H 4-[(E)-2-(5,6,7,8-tetrahydro-5,5,8,8-tetramethyl-2-naphthalenyl)-1-propenyl]benzoic acid (TTNPB), and multiple concentrations of test compound ranging from (5 nM to 10 μM). Non-specific binding may be determined in the presence of 1 μM unlabeled TTNPB. Use the data to calculate an IC50 for compounds after fitting the dose-response curves to a 4-parameter logistic fit. Use the Cheng-Prusoff equation to convert IC50 (nM) values for compounds to Ki, and the Kd may be determined by saturation binding.

RARγ = molecular target: T2, RARγ (Homo sapiens, UniProt P13631); assay: RARγ binding assay (SPA, 3H-TTNPB competition); details: RARγ/RXRα heterodimer
T2 construct: made in house; host or cells: baculovirus expression system
T2 sequence (P13631 1-454): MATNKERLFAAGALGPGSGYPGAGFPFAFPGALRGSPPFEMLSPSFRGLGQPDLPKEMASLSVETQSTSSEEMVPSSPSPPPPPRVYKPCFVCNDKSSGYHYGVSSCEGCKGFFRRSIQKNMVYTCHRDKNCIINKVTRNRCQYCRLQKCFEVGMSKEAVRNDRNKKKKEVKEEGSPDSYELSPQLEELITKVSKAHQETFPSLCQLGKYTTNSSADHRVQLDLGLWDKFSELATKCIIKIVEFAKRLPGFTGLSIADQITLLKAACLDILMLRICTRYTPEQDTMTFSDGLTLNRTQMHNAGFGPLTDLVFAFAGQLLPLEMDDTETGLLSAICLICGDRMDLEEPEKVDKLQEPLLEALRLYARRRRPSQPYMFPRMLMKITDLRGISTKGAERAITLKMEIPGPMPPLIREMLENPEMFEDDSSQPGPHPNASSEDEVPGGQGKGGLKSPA
T2 sequence (P19793 1-462 partner): T1 sequence (P19793 1-462 partner)
Excerpt: as §1

RARα = molecular target: T3, RARα (Homo sapiens, UniProt P10276); assay: RARα binding assay (SPA, 3H-TTNPB competition); details: RARα/RXRα heterodimer
T3 construct: made in house; host or cells: baculovirus expression system
T3 sequence (P10276 1-462): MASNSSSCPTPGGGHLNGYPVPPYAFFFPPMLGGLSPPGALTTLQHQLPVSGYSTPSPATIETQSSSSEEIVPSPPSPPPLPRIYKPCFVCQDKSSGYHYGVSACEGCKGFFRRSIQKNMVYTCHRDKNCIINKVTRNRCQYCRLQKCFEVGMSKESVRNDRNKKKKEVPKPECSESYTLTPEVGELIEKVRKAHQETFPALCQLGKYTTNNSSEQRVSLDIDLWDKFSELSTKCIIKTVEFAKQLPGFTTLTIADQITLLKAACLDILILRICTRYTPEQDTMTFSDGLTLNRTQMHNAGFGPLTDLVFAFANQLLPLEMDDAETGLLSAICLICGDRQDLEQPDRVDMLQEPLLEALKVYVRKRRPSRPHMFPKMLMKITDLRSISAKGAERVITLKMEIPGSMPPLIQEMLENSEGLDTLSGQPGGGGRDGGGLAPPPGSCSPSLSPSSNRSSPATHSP
T3 sequence (P19793 1-462 partner): T1 sequence (P19793 1-462 partner)
Excerpt: as §1

Compound | Ki (RARβ) [nM] | Ki (RARγ) [nM] | Ki (RARα) [nM]
CC(C)(C)c1cc(-c2cc(-c3ccc(C(=O)O)cc3)nn2-c2ccc(S(C)(=O)=O)cc2)cc(C(C)(C)C)c1 [Example 19, 4-[5-(3,5-Di-tert-butylphenyl)-1-(4-methylsulfonylphenyl)pyrazol-3-yl]benzoic Acid] | 828 | 2.76 | 285
CC(C)(C)c1cc(-c2cc(-c3ccc(C(=O)O)cc3)nn2-c2ccc(C(=O)N3CCOCC3)cc2)cc(C(C)(C)C)n1 [Example 8, 4-[5-(2,6-Di-tert-butyl-4-pyridyl)-1-[4-(morpholine-4-carbonyl)phenyl]pyrazol-3-yl]benzoic acid] | 1400 | 1.58 | 357
CN1CCN(C(=O)c2ccc(-n3nc(-c4ccc(C(=O)O)cc4)cc3-c3cc(C(C)(C)C)cc(C(C)(C)C)c3)cc2)CC1 [Example 1, 4-[5-(3,5-Di-tert-butylphenyl)-1-[4-(4-methylpiperazine-1-carbonyl)phenyl]pyrazol-3-yl]benzoic Acid] | > 1820 | 1.69 | > 970
CC(C)Sc1cc(-c2cc(-c3ccc(C(=O)O)cc3)nn2-c2ccc(C(=O)N(C)C)cc2)cc(C(C)(C)C)c1 [Example 12, 4-[5-(3-tert-Butyl-5-isopropylsulfanyl-phenyl)-1-[4-(dimethylcarbamoyl)phenyl]pyrazol-3-yl]benzoic Acid] | 609 | 3.06 | 386
